Experimental data reported in patent US11168073B2, “3,3-difluoroallylamines or salts thereof and pharmaceutical compositions comprising the same” (YUHAN CORPORATION, priority 2018, dated 2021).
Structures can show the parent of a compound that is named as a salt.

Legend:
Format in all cases: biochemical
[1] = molecular target: T1, recombinant human MAO-B (monoamine oxidase-B) (Homo sapiens, UniProt P27338); experiment: Activity evaluation on recombinant human MAO-B (Amplex Red/HRP-coupled assay, 1 mM benzylamine substrate); settings: 1 mM benzylamine, read-out: Inhibitory Activity (IC50, nM) MAO-B
T1 construct: purchased Sigma-Aldrich
T1 sequence (P27338 1-520): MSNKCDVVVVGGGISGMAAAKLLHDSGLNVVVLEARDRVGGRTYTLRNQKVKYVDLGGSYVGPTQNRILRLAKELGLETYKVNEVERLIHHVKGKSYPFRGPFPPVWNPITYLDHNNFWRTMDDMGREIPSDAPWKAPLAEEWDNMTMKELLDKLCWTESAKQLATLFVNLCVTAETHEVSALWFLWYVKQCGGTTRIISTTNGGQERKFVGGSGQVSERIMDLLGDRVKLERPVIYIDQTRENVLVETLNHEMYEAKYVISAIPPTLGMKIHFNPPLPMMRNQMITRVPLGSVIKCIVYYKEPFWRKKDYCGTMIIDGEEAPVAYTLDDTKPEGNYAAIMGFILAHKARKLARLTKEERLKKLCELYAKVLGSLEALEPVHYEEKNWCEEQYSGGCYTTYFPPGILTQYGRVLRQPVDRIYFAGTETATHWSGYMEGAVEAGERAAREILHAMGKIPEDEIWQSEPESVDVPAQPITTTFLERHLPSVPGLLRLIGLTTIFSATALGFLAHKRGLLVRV
Method in brief: (§1)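 Enzyme activity was measured as fluorescence rate (ex 544, em 590 nm) from resorufin formed by HRP-coupled H2O2 oxidation of 200 uM Amplex Red. Compounds were first incubated 30 min at 37 °C with enzyme at pH 7.4; substrates were 0.5 mM tyramine (MAO-A), 1 mM benzylamine (MAO-B) and 1 mM putrescine (DAO).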

[2] = molecular target: T2, recombinant human MAO-A (monoamine oxidase-A) (Homo sapiens, UniProt P21397); experiment: Activity evaluation on recombinant human MAO-A (Amplex Red/HRP-coupled assay, 0.5 mM tyramine substrate); settings: 0.5 mM tyramine, read-out: Inhibitory Activity (IC50, nM) MAO-A
T2 construct: purchased Sigma-Aldrich
T2 sequence (P21397 1-527): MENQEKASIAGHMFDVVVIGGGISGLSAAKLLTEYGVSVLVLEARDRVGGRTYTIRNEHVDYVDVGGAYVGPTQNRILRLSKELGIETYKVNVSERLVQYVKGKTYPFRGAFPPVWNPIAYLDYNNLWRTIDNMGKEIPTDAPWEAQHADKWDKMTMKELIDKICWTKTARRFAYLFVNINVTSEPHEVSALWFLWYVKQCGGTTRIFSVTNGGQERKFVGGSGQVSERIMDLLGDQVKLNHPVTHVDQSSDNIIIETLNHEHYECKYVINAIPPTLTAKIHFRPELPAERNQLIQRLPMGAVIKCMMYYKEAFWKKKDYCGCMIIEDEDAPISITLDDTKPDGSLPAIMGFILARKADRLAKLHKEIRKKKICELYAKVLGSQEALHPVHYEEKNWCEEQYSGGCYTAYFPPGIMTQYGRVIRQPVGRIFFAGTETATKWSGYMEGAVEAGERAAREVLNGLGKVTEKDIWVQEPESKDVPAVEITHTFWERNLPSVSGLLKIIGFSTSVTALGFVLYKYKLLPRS
Method in brief: as §1

[3] = molecular target: T3, recombinant human VAP-1 (Homo sapiens, UniProt Q16853); experiment: Activity evaluation on recombinant human VAP-1 (Amplex Red/HRP-coupled hydrogen peroxide assay, benzylamine substrate); settings: recombinant human VAP-1; 30 min preincubation at 37° C.; 1 mM benzylamine; read-out: Inhibitory Activity (IC50, nM) human VAP-1
T3 construct: purchased R&D systems
T3 sequence (Q16853 1-763): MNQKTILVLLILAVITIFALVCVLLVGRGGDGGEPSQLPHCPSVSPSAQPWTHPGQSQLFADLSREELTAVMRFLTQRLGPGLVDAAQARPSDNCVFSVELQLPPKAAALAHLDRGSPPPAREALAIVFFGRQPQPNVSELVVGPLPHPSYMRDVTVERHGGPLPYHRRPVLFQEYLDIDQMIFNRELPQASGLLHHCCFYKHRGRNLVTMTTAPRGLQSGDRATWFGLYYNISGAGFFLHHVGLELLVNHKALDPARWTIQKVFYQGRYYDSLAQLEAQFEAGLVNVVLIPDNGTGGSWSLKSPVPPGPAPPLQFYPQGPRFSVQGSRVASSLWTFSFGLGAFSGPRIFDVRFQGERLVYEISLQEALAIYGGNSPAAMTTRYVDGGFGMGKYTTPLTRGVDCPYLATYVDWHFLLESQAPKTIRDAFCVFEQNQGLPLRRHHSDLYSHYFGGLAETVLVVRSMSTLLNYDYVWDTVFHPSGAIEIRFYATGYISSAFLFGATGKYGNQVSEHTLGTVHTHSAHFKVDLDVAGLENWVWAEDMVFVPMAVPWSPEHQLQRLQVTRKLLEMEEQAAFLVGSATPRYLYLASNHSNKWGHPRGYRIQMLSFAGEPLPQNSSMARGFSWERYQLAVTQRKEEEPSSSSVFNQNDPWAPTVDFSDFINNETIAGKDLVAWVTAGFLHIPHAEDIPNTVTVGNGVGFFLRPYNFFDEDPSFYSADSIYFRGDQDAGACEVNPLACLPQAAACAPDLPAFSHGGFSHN
Method in brief: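 Recombinant human VAP-1 in 50 mM sodium phosphate pH 7.4 preincubated 30 min at 37 °C with compound (8-point 1:3 series, <1% DMSO), then 1 mM benzylamine, 200 uM Amplex Red, 1 U/mL HRP added. H2O2-derived resorufin fluorescence (ex 544/em 590) followed 1–2 h; IC50 from four-parameter fit of rate inhibition.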

[4] = molecular target: T4, recombinant human DAO (diamine oxidase) (Homo sapiens, UniProt P19801); experiment: Activity evaluation on recombinant human DAO (Amplex Red/HRP-coupled assay, 1 mM putrescine substrate); settings: 1 mM putrescine, read-out: Inhibitory Activity (IC50, nM) DAO
T4 construct: purchased R&D systems
T4 sequence (P19801 20-751): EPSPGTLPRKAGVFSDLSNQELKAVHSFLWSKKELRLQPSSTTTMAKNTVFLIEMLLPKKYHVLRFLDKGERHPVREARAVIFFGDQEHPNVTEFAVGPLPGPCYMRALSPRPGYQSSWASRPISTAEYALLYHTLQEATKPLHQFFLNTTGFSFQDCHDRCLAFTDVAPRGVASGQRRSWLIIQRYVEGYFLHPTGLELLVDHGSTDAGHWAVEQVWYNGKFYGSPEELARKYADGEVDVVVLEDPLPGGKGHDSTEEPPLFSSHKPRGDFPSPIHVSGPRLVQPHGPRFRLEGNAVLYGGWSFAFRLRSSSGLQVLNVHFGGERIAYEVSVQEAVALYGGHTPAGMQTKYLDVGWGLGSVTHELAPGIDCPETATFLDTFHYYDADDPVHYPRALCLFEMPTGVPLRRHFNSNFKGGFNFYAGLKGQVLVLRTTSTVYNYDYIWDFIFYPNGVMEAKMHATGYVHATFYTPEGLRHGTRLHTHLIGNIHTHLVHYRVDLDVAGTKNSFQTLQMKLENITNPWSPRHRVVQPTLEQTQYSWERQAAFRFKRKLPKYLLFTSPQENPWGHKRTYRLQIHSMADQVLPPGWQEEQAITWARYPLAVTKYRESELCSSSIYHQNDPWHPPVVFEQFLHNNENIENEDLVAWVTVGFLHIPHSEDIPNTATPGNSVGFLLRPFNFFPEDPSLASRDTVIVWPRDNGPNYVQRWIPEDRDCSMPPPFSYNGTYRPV
Method in brief: as §1

Row | IC50 [1] [nM] | IC50 [2] [nM] | IC50 [3] [nM] | IC50 [4] [nM] | SMILES
1 | 20000 | > 100000 | 1.3 | > 10000 | NCC(Cn1ncn(Cc2ccc(Br)s2)c1=O)=C(F)F [Example 97, 2-[2-(aminomethyl)-3,3-difluoro-allyl]-4-[(5-bromo-2-thienyl)methyl]-1,2,4-triazol-3-one Trifluoroacetate]
2 | 13900 | > 100000 | 23 | 18600 | NCC(Cn1ncn(Cc2cc(Br)cs2)c1=O)=C(F)F [Example 98, 2-[2-(aminomethyl)-3,3-difluoro-allyl]-4-[(4-bromo-2-thienyl)methyl]-1,2,4-triazol-3-one Trifluoroacetate]
3 | 21000 | > 100000 | 9.3 | > 100000 | Cc1cc(Br)sc1Cn1cnn(CC(CN)=C(F)F)c1=O [Example 99, 2-[2-(aminomethyl)-3,3-difluoro-allyl]-4-[(5-bromo-3-methyl-2-thienyl)methyl]-1,2,4-triazol-3-one Trifluoroacetate]
4 | 11000 | > 100000 | 0.5 | > 10000 | CC(=O)c1ccc(-c2ccc(Cn3cnn(CC(CN)=C(F)F)c3=O)s2)cc1 [Example 100, 4-[[5-(4-acetylphenyl)-2-thienyl]methyl]-2-[2-(aminomethyl)-3,3-difluoro-allyl]-1,2,4-triazol-3-one trifluoroacetate]
5 | 67000 | > 100000 | 0.3 | 21000 | CS(=O)(=O)c1ccc(-c2ccc(Cn3cnn(CC(CN)=C(F)F)c3=O)s2)cc1 [Example 101, 2-[2-(aminomethyl)-3,3-difluoro-allyl]-4-[[5-(4-methylsulfonylphenyl)-2-thienyl]methyl]-1,2,4-triazol-3-one Trifluoroacetate]

The next lines start with the molecule.

Row | SMILES | IC50 [1] [nM] | IC50 [2] [nM] | IC50 [3] [nM] | IC50 [4] [nM]
6 | CCn1cc(-c2cnc(-n3cnn(CC(CN)=C(F)F)c3=O)c(F)c2)cn1 [Example 88, 2-[2-(aminomethyl)-3,3-difluoro-allyl]-4-[5-(1-ethylpyrazol-4-yl)-3-fluoro-2-pyridyl]-1,2,4-triazol-3-one Trifluoroacetate] | 8200 | > 100000 | 0.3 | 230
7 | CS(=O)(=O)c1ccc(-c2cnc(-n3cnn(CC(CN)=C(F)F)c3=O)cn2)cc1 [Example 89, 2-[2-(aminomethyl)-3,3-difluoro-allyl]-4-[5-(4-methylsulfonylphenyl)-pyrazin-2-yl]-1,2,4-triazol-3-one Trifluoroacetate] | 1900 | > 100000 | 0.6 | 2
8 | NCC(Cn1ncn(-c2cnc(-c3ccc(N4CCNCC4)cc3)cn2)c1=O)=C(F)F [Example 90, 2-[2-(aminomethyl)-3,3-difluoro-allyl]-4-[5-(4-piperazin-1-ylphenyl)pyrazin-2-yl]-1,2,4-triazol-3-one Ditrifluoroacetate] | > 100000 | > 100000 | 1.3 | 30
9 | NCC(Cn1ncn(-c2cnc(-c3ccc(C(F)(F)F)nc3)cn2)c1=O)=C(F)F [Example 91, 2-[2-(aminomethyl)-3,3-difluoro-allyl]-4-[5-[6-(trifluoromethyl)-3-pyridyl]pyrazin-2-yl]-1,2,4-triazol-3-one Trifluoroacetate] | 200 | > 100000 | 0.5 | 1
10 | CN(C)c1ccc(-c2cnc(-n3cnn(CC(CN)=C(F)F)c3=O)cn2)cn1 [Example 92, 2-[2-(aminomethyl)-3,3-difluoro-allyl]-4-[5-[6-(dimethylamino)-3-pyridyl]pyrazin-2-yl]-1,2,4-triazol-3-one Trifluoroacetate] | 6200 | > 100000 | 0.2 | 8
11 | NCC(Cn1ncn(-c2cnc(-c3ccc4c(c3)OCO4)cn2)c1=O)=C(F)F [Example 93, 2-[2-(aminomethyl)-3,3-difluoro-allyl]-4-[5-(1,3-benzodioxol-5-yl)pyrazin-2-yl]-1,2,4-triazol-3-one Trifluoroacetate] | 50 | > 100000 | 0.3 | 21
12 | CN1C(=O)CCc2cc(-c3cnc(-n4cnn(CC(CN)=C(F)F)c4=O)cn3)ccc21 [Example 94, 6-[5-[1-[2-(aminomethyl)-3,3-difluoro-allyl]-5-oxo-1,2,4-triazol-4-yl]pyrazin-2-yl]-1-methyl-3,4-dihydro-1H-quinolin-2-one Trifluoroacetate] | 860 | > 100000 | 0.2 | 4
13 | CCn1cc(-c2cnc(-n3cnn(CC(CN)=C(F)F)c3=O)cn2)cn1 [Example 95, 2-[2-(aminomethyl)-3,3-difluoro-allyl]-4-[5-(1-ethylpyrazol-4-yl)pyrazin-2-yl]-1,2,4-triazol-3-one Trifluoroacetate] | 1300 | > 100000 | 0.6 | 19
14 | NCC(Cn1ncn(Cc2ccc(OCc3ccccc3)cc2)c1=O)=C(F)F [Example 96, 2-[2-(aminomethyl)-3,3-difluoro-allyl]-4-[(4-benzyloxyphenyl)methyl]-1,2,4-triazol-3-one Trifluoroacetate] | 220 | > 100000 | 13 | > 100000
